For series [1] the following is noted: Crystal; DTA.
The nature of series [2]: Molar enthalpy of transition or fusion. The note with it: Crystal; DSC.

Experimental findings from the NIST ThermoML archive (doi:10.1016/j.jct.2013.01.019) are described below.

Each structure is given as a SMILES string. ± gives the expanded uncertainty stated by the source.

In the case of `CCCCCCCCCCCCO` [dodecan-1-ol], the Normal melting temperature in series [1] came to 24.00 ± 0.53 °C. For the same compound, the “Molar enthalpy of transition or fusion” value in series [2] was 9.33 ± 0.263 kcal/mol.
For the compound `CCCCCCCCCCCCCCCCCC` [octadecane], the Normal melting temperature in series [1] is 27.80 ± 0.53 °C. Besides, the “Molar enthalpy of transition or fusion” value in series [2] worked out at 14.7 ± 0.406 kcal/mol.
